Reference: patent US20190091168A1, “FORMULATION FOR ENHANCED TRANSDERMAL ABSORPTION OF DRUG” (UNIST(ULSAN NATIONAL INSTITUTE OF SCIENCE AND TECHNOLOGY), priority 2017, published 2019)

Legend:
Format in all cases: in vivo
monomer/oligomer Aβ = test: Monomer/oligomer Aβ expression in skin tissue after oral administration (fluorescence imaging); details: 100 μg/Kg/0.1 ml twice a week, 2 months, APP/PS/Tau mouse
[1] = tested on: hair loss mouse model APP/PS/Tau; test: Hair loss mouse model, oral administration, changes in appearance; details: 100 μg/Kg twice a week for 2 months
Text: (§1) APP/PS/Tau was purchased as a dementia mouse model from Jackson lab (BAR HARBOR, USA), and APP/Tau female and APP/PSen1de9 purchased from Taconic (Hudson, USA) were cross-mated for 6 generations, and 4-month-old mouse models were obtained from F1.
In order to examine therapeutic effects of the benzene diamine derivative of the present disclosure on hair loss, the benzene diamine derivative was orally administered to hair loss-induced mouse models, and changes in appearance were examined. The animal model of Experimental Example 2-1 was characterized by appearance of hair loss as well as dementia symptoms. Therefore, the animal model of Experimental Example 2-1 was used as a hair loss mouse model.
The hair loss mouse models were divided into groups of 6 mice, and among the hair loss mouse models, the control group were orally administered with a phosphate buffer vehicle (PBS) for 2 months, and the experimental group was orally administered with 100 μl of N1-(pyridin-2-ylmethyl)benzene-1,4-diamine (Compound 2) at a concentration of 100 μg/Kg twice a week for 2 months. Thereafter, changes in their appearance were compared.

SOX-9 = SOX-9 expression in skin tissue after oral administration (fluorescence imaging); details: 100 μg/Kg/0.1 ml twice a week, 2 months, APP/PS/Tau mouse
Method: (§2) Accordingly, the present inventors examined whether expressions of hair growth stimulating factors, SOX-2 and SOX-9 were increased in hair loss animal models by the benzene diamine derivatives of the present disclosure. In order to examine SOX-2 and SOX-9 expressions inside skin tissues, APP/PS/Tau mouse which is a hair loss-induced mouse model was selected as a control group and C57BL6 mouse was selected as a normal group, as in Example 5. An experimental group was prepared by orally administering the control group with the benzene diamine derivative at a concentration of 100 μg/Kg/0.1 ml using a zonde twice a week. 2 months later, incision of the skin was performed under local anesthesia, and the skin tissues were fixed in 4% paraformaldehyde solution for 24 hours, and fixed in a plastic mold with O.C.T. Compound (SAKURA, USA) for cryostat sectioning. […] Thereafter, the plate was put on a slide glass and covered with a cover slide, and stored in a dark acrylic box, and fluorescence imaging was observed under a confocal microscope (LSM710, Carl Zeiss, Germany) by 405/488/565 nm laser. […]

[2] = tested on: dementia mouse model APP/PS/Tau; test: Morris water maze test in dementia mouse model; details: for mean escape latency: 100 μg/kg twice a week for 2 months
Text: as §1
In order to examine therapeutic effects of the benzene diamine derivative of the present disclosure on dementia, enhancement of spatial cognition and memory in dementia mouse models were investigated. For this investigation, a Morris water maze (Harvard Apparatus, USA) test was performed.
In detail, a water maze composed of a stainless steel pool with a diameter of 150 cm×a height of 60 cm and an escape platform (10 cm in diameter, 30 cm in height) was filled with water at […], and the height was 2 cm above the platform such that when a mouse sat on the escape platform, the body was allowed to come out of the water. […] Escape latency was measured as the time taken for the experimental animal to go to the escape platform when the experimental animal went to the escape platform and stayed thereon for more than 20 seconds. This test was performed three times a day, and a mean value was determined as mean escape latency. The escape latency was recorded on the computer program (Smart Video Tracking System V3.0, PanLab SL, Barcelona, Spain) by installing a camera on the ceiling above the water tank. The experiment was performed three times a day for 6 days, and at this time, the possibility of accidentally visiting the escape platform was minimized by sequentially changing the positions of the experimental animals in the water tank. In the experiment, a normal mouse, a control dementia mouse administered with a vehicle (PBS) and an experimental dementia mouse administered with 100 μg/kg of N^1-(pyridin-2-ylmethyl)benzene-1,4-diamine (Compound 2) twice a week for 2 months were used after completing administration.

SOX-2 = SOX-2 expression in skin tissue after oral administration (fluorescence imaging); details: 100 μg/Kg/0.1 ml twice a week, 2 months, APP/PS/Tau mouse
Method: as §2

N^1-(pyridin-2-ylmethyl)benzene-1,4-diamine [Compound 2]
monomer/oligomer Aβ expression in skin (monomer/oligomer Aβ): decreased | changes in appearance (hair loss) [1]: remarkable improvement in hair loss | SOX-9 expression in skin (SOX-9): remarkably increased | mean escape latency ([2]; at 3 days, compared with dementia control group): significantly short mean escape latency | difference of mean escape latency, control group vs experimental group ([2]; at 4 days): 16 s | mean escape latency ([2]; at 4 days): 26 ± 1 s | difference of mean escape latency, dementia group vs treated group ([2]; at 5 days): 19 s | mean escape latency ([2]; at 5 days): 24 ± 1 s | SOX-2 expression in skin (SOX-2): remarkably expressed close to the normal group
